# “And” between values parts separate entries of the source, which are not always exact repeats. Equal entries are not always repeated.
# How the values were obtained:
# [1] = Acceleration test of plasma samples with stabilizers (30° C. for 1.5 days, against control plasma stored at −95° C. to −65° C.), LC-MS/MS Area/IS Area
# Protocol: Samples were collected in EDTA-anticoagulant blood collection tubes and then rapidly subjected to […] centrifugation at 2-8° C. to separate plasma. 0.95 mL of the plasma was transferred into centrifuge tubes. After 50 μL of the stabilizer was added for uniform mixing, the plasma samples were stored by refrigeration or freezing.
# • (1) 500 μL of plasma/urine samples to be tested were taken, and 50 μL of the internal standard solution and 500 μL of the buffer solution were sequentially added for vertex mixing to obtain diluted samples. • (2) The magnetic medium composite material suspension was subjected to full vortex treatment to reach a suspension state, and then subsequent operation was performed. • (3) Different reagents were added into wells of a preprocessing plate according to the follow operation: adding 200 μL of the magnetic medium composite material suspension in column 1, adding 500 μL of the balance solution in column 2, adding 850 μL of the diluted samples in column 3, adding 500 μL of the balance solution in column 4, adding 200 μL of a rinsing solution in column 5, and adding 100 μL of the elution solution in column 6. • (4) An extraction operation procedure was carried out, as shown in Table 5.
# Each group of the plasma samples were stored at 30° C. for 1.5 days, and plasma without addition of any compounds stored at −95° C. to −65° C. was used as a control. […] The stabilizing effect of the single-component stabilizers on the plasma samples was investigated.
# The stabilizers were mixed with plasma (the volume ratio of the stabilizers to plasma samples was 1:19), and high concentration plasma samples and low concentration plasma samples were prepared by the method provided in Example 1.
# With plasma stored at −95° C. to −65° C. as a control, the above plasma samples were separately stored at 30° C. for 1.5 days to investigate the stability. […]
# [2] = Stabilizing effect of accelerated stabilizers (37° C., 14 days) on plasma samples then accelerated at 30° C. for 1.5 days; type: physicochemical, human; details: for Relative deviation %: Accelerate vs Control; for concentration in plasma samples, Control / concentration in plasma samples, Accelerate: single replicates; for concentration in plasma samples, Accelerate: stabilizer accelerated 37° C. 14 days, plasma then accelerated at 30° C. for 1.5 days
# Protocol: (§1) In the present example, the stabilizing effect of the stabilizers on plasma samples, standard products and quality control products after acceleration was further verified. The stabilizers were accelerated at 37° C. for 14 days (equivalent to 1 year at 2-8° C.), added into the plasma samples in proportions and then accelerated at 30° C. for 1.5 days (equivalent to 12 months at −30° C. to −15° C.). The stabilizers were accelerated at 37° C. for 14 days (equivalent to 1 year at 2-8° C.), added into the standard products and the quality control products in proportions and then accelerated at 30° C. for 2 days (equivalent to 18 months at −30° C. to −15° C.).
# [3] = Stabilizing effect of accelerated stabilizers (37° C., 14 days) on standard products and quality control products then accelerated at 30° C. for 2 days; type: physicochemical; details: for Relative deviation %: 2 days at 30° C. vs Control; for concentration in standard products and quality control products, 2 days at 30° C. / concentration in standard products and quality control products, Control: single replicates
# Protocol: Standard products of epinephrine, norepinephrine, dopamine, metanephrine, normetanephrine and 3-methoxytyramine were prepared into mixed solutions, and blank plasma containing a stabilizer was used as a matrix to prepare standard products and quality control products.
# as §1
# [4] = samples at a high concentration level
# [5] = samples at a low concentration level
Compound,"Relative deviation % [2, 4]","concentration in plasma samples, Control [2, 4]","concentration in plasma samples, Accelerate [2, 4]","Relative deviation % [2, 5]","concentration in plasma samples, Control [2, 5]","concentration in plasma samples, Accelerate [2, 5]",Relative deviation % ([3]; High concentration level),"average concentration, 2 days at 30° C. ([3]; High concentration level)","concentration in standard products and quality control products, 2 days at 30° C. ([3]; High concentration level)","average concentration, Control ([3]; High concentration level)","concentration in standard products and quality control products, Control ([3]; High concentration level)",Relative deviation % ([3]; Low concentration level),"average concentration, 2 days at 30° C. ([3]; Low concentration level)","concentration in standard products and quality control products, 2 days at 30° C. ([3]; Low concentration level)","average concentration, Control ([3]; Low concentration level)","concentration in standard products and quality control products, Control ([3]; Low concentration level)",Relative deviation % ([3]; Medium concentration level),"average concentration, 2 days at 30° C. ([3]; Medium concentration level)","concentration in standard products and quality control products, 2 days at 30° C. ([3]; Medium concentration level)","average concentration, Control ([3]; Medium concentration level)",other results
"O=C(O)CN(CCN(CC(=O)O)CC(=O)O)CC(=O)O.[Na].[Na] [disodium EDTA, disodium ethylenediaminetetraacetic acid]",–,–,–,–,–,–,–,–,–,–,–,–,–,–,–,–,–,–,–,–,"Ratio (Area/IS Area) E ([1]; plasma at a high concentration level, plasma containing 50 μg/mL of the component, control plasma 0.624): 0; Ratio (Area/IS Area) NE ([1]; plasma at a high concentration level, plasma containing 50 μg/mL of the component, control plasma 1.522): 0; Ratio (Area/IS Area) DA ([1]; plasma at a high concentration level, plasma containing 50 μg/mL of the component, control plasma 2.27): 0; Ratio (Area/IS Area) E ([1]; plasma at a high concentration level, plasma containing 200 μg/mL of the component, control plasma 0.624): 0; Ratio (Area/IS Area) NE ([1]; plasma at a high concentration level, plasma containing 200 μg/mL of the component, control plasma 1.522): 0; Ratio (Area/IS Area) DA ([1]; plasma at a high concentration level, plasma containing 200 μg/mL of the component, control plasma 2.27): 0; Ratio (Area/IS Area) E ([1]; plasma at a low concentration level, plasma containing 50 μg/mL of the component, control plasma 0.079): 0; Ratio (Area/IS Area) NE ([1]; plasma at a low concentration level, plasma containing 50 μg/mL of the component, control plasma 0.219): 0; Ratio (Area/IS Area) DA ([1]; plasma at a low concentration level, plasma containing 50 μg/mL of the component, control plasma 0.233): 0; Ratio (Area/IS Area) E ([1]; plasma at a low concentration level, plasma containing 200 μg/mL of the component, control plasma 0.079): 0; Ratio (Area/IS Area) NE ([1]; plasma at a low concentration level, plasma containing 200 μg/mL of the component, control plasma 0.219): 0; Ratio (Area/IS Area) DA ([1]; plasma at a low concentration level, plasma containing 200 μg/mL of the component, control plasma 0.233): 0; stabilizing effect on catecholamines in plasma ([1]; single components as stabilizers): no obvious stabilizing effect"
COc1cc(C(O)CN)ccc1O (stereo not shown) [NMN],2.1%,0.97087 ng/mL and 0.85456 ng/mL and 0.85498 ng/mL,0.91096 ng/mL and 0.88464 ng/mL and 0.94153 ng/mL,1.7%,0.17577 ng/mL and 0.16472 ng/mL and 0.17242 ng/mL,0.17659 ng/mL and 0.17047 ng/mL and 0.17436 ng/mL,−3.68%,1910.2 pg/mL,1.89388 ng/mL and 1.85479 ng/mL and 1.98193 ng/mL,1983.21 pg/mL,2.00785 ng/mL and 1.95209 ng/mL and 1.98969 ng/mL,1.41%,24.2 pg/mL,0.02503 ng/mL and 0.02506 ng/mL and 0.0225 ng/mL,23.86 pg/mL,0.02255 ng/mL and 0.02588 ng/mL and 0.02315 ng/mL,1.5%,405.18 pg/mL,0.39387 ng/mL and 0.42435 ng/mL and 0.39731 ng/mL,399.18 pg/mL,"concentration in standard products and quality control products, Control ([3]; Medium concentration level): 0.39333 ng/mL and 0.41828 ng/mL and 0.38593 ng/mL"
NCCc1ccc(O)c(O)c1 [DA],−2.0%,0.55903 ng/mL and 0.52998 ng/mL and 0.57132 ng/mL,0.55049 ng/mL and 0.5487 ng/mL and 0.52712 ng/mL,−0.8%,0.0743 ng/mL and 0.09053 ng/mL and 0.08768 ng/mL,0.08786 ng/mL and 0.07829 ng/mL and 0.08442 ng/mL,0.3%,1485.59 pg/mL,1.46403 ng/mL and 1.43079 ng/mL and 1.56195 ng/mL,1481.12 pg/mL,1.46201 ng/mL and 1.49448 ng/mL and 1.48688 ng/mL,−0.29%,17.86 pg/mL,0.01762 ng/mL and 0.01837 ng/mL and 0.01758 ng/mL,17.91 pg/mL,0.01722 ng/mL and 0.0181 ng/mL and 0.01841 ng/mL,−2.2%,294.46 pg/mL,0.2821 ng/mL and 0.31535 ng/mL and 0.28595 ng/mL,301.09 pg/mL,"concentration in standard products and quality control products, Control ([3]; Medium concentration level): 0.30826 ng/mL and 0.30148 ng/mL and 0.29352 ng/mL"
